Experiment [1] relates to E. coli UB1005 C498. Briefly: MIC microtitre broth dilution, E. coli. Format: cell-based. Conditions: E. coli UB1005 C498 wt Gram−, 24 h. On the procedure: (§1) MIC assays were conducted essentially as described by Amsterdam, D 1996, “Susceptibility testing of antimicrobials in liquid media”, p. 52-111, in Loman, V, ed. Antibiotics in laboratory medicine, 4th ed Williams and Wilkins, Baltimore, Md.
For orientation: In broth dilution the organism is exposed to a series of concentrations in liquid medium.

In experiment [2] the test system is S. epidermidis C621. Briefly: MIC microtitre broth dilution, S. epidermidis. Format: cell-based. The following applies: S. epidermidis C621 wt Gram+, 24 h. The procedure: as §1
Experiment [3] deals with S. pyogenes C721. Briefly: MIC microtitre broth dilution, S. pyogenes. Format: cell-based. Conditions: S. pyogenes C721 wt Gram+, Todd Hewitt broth. On the procedure: as §1
Experiment [4] relates to S. aureus ATCC25923 C622. Briefly: MIC microtitre broth dilution, S. aureus. Format: cell-based. The following applies: S. aureus ATCC25923 C622 wt Gram+, 24 h. The procedure:
as §1

Experiment [5] concerns P. aeruginosa PAE/K799 H187. Briefly: MIC microtitre broth dilution, P. aeruginosa. Format: cell-based. Conditions: P. aeruginosa PAE/K799 H187 wt Gram−, 24 h. On the procedure:
as §1

Experiment [6] concerns K. pneumoniae ATCC13883 C238. In words: MIC microtitre broth dilution, K. pneumoniae. Format: cell-based. Conditions: K. pneumoniae ATCC13883 C238 wt Gram−, 24 h. On the procedure: as §1
Experiment [7] relates to Smooth muscle cells. Briefly: Proliferation of smooth muscle cells. Format: cell-based. The following applies: 72 hours, CYQUANT; read-out: IC50 proliferation of smooth muscle cells. In outline:
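Smooth muscle cells at 600 cells/well, exposed to paclitaxel (DMSO stocks 10^−8 to 10^−2 M) in triplicate for 72 h at 37 °C. Proliferation read with CyQUANT GR dye in lysis buffer.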

The test system of experiment [8] is IL-1β production by THP-1 cells. In words: IL-1β production by macrophages. Format: cell-based, human. The following applies: read-out: IC50 IL-1β production.
Experiment [9] concerns IL-8 production by THP-1 cells. Briefly: IL-8 production by macrophages. The following applies: THP-1 cells stimulated with opsonized zymosan, 24 hours; read-out: IC50 IL-8 production. Format: cell-based, human. The procedure:
(§2) The human macrophage cell line, THP-1 was plated in a 12 well plate such that each well contains 1×10^6 cells in 2 ml of media containing 10% FCS. Opsonized zymosan was prepared by resuspending 20 mg of zymosan A in 2 ml of ddH2O and homogenizing until a uniform suspension was obtained. Homogenized zymosan was pelleted at 250 g, resuspended in 4 ml of human serum for a final concentration of 5 mg/ml, and incubated in a 37° C. water bath for 20 minutes to enable opsonization. Geldanamycin was prepared in DMSO at a concentration of 10^−2 M and serially diluted 10-fold to give a range of stock concentrations (10^−8 M to 10^−2 M).
THP-1 cells were stimulated to produce IL-8 by the addition of 1 mg/ml opsonized zymosan. Geldanamycin was added to THP-1 cells by directly adding DMSO stock solutions, prepared earlier, at a 1/1000 dilution, to each well. Each drug concentration was tested in triplicate wells. Plates were incubated at 37° C. for 24 hours.
After a 24-hour stimulation, supernatants were collected to quantify IL-8 production. IL-8 concentrations in the supernatants were determined by ELISA using recombinant human IL-8 to obtain a standard curve. A 96-well MAXISORB plate was coated with 100 μL of anti-human IL-8 Capture Antibody diluted in Coating Buffer (0.1M sodium carbonate pH 9.5) overnight at 4° C. The dilution of Capture Antibody used was lot-specific and was determined empirically. Capture antibody was then aspirated and the plate washed 3 times with Wash Buffer (PBS, 0.05% TWEEN-20). Plates were blocked for 1 hour at room temperature with 200 μL/well of Assay Diluent (PBS, 10% FCS pH 7.0). After blocking, plates were washed 3 times with Wash Buffer. Standards and sample dilutions were prepared as follows: (a) sample supernatants were diluted 1/100 and 1/1000; (b) recombinant human IL-8 was prepared at 200 pg/ml and serially diluted to yield as standard curve of 3.1 pg/ml to 200 pg/ml Sample supernatants and standards were assayed in triplicate and were incubated at room temperature for 2 hours after addition to the plate coated with Capture Antibody The plates were washed 5 times and incubated with 100 μL of Working Detector (biotinylated anti-human IL-8 detection antibody+avidin-HRP) for 1 hour at room temperature. Following this incubation, the plates were washed 7 times and 100 μL of Substrate Solution (Tetramethylbenzidine, H2O2) was added to plates and incubated for 30 minutes at room temperature. Stop Solution (2 NH2SO4) was then added to the wells and a yellow color reaction was read at 450 nm with A correction at 570 nm. Mean absorbance was determined from triplicate data readings and the mean background was subtracted. IL-8 concentration values were obtained from the standard curve. […] The IC50 values for the following additional compounds were determined using this assay: IC50 (nM): 17-AAG, 56; mycophenolic acid, 549; resveratrol, 507; rapamycin, 4; 41; SP600125, 344; halofuginone, 641; D-mannose-6-phosphate, 220; epirubicin hydrochloride, 654; topotemay, 257; mithramycin, 33; daunorubicin, 421; celastrol, 490; chromomycin A3, 36

In experiment [10] the test system is MCP-1 production by THP-1 cells. In words: MCP-1 production by macrophages. The following applies: THP-1 cells stimulated with opsonized zymosan, 24 hours, read-out: IC50 MCP-1 production. Format: cell-based, human. The procedure:
as §2, with “g and” for “g,”, “mg/ml” for “mg/ml,”
THP-1 cells were stimulated to produce MCP-1 by the addition of 1 mg/ml opsonized zymosan. […] was added to THP-1 cells by directly adding DMSO stock solutions, prepared earlier, at a 1/1000 dilution, to each well. Each drug concentration was tested in triplicate wells. Plates were incubated at 37° C. for 24 hours.
After a 24-hour stimulation, supernatants were collected to quantify MCP-1 production. MCP-1 concentrations in the supernatants were determined by ELISA using recombinant human MCP-1 to obtain a standard curve. A 96-well MaxiSorb plate was coated with 100 μL of anti-human MCP-1 Capture Antibody diluted in Coating Buffer (0.1M sodium carbonate pH 9.5) overnight at 4° C. The dilution of Capture Antibody used was lot-specific and was determined empirically. Capture antibody was then aspirated and the plate washed 3 times with Wash Buffer (PBS, 0.05% TWEEN-20). Plates were blocked for 1 hour at room temperature with 200 μL/well of Assay Diluent (PBS, 10% FCS pH 7.0). After blocking, plates were washed 3 times with Wash Buffer. […] Sample supernatants and standards were assayed in triplicate and were incubated at room temperature for 2 hours after addition to the plate coated with Capture Antibody. The plates were washed 5 times and incubated with 100 μL of Working Detector (biotinylated anti-human MCP-1 detection antibody+avidin-HRP) for 1 hour at room temperature. Following this incubation, the plates were washed 7 times and 100 μL of Substrate Solution (tetramethylbenzidine, H2O2) was added to plates and incubated for 30 minutes at room temperature. […] Mean absorbance was determined from triplicate data readings and the mean background was subtracted. MCP-1 concentration values were obtained from the standard curve.

The test system of experiment [11] is TNFα production by THP-1 cells. In words: TNF-alpha production by macrophages. Format: cell-based, human. Conditions: THP-1 cells stimulated with opsonized zymosan, 24 hours; read-out: IC50 TNFα production. On the procedure: The human macrophage cell line, THP-1 was plated in a 12-well plate such that each well contains 1×10^6 cells in 2 ml of media containing 10% FCS. Opsonized zymosan was prepared by resuspending 20 mg of zymosan A in 2 ml of ddH2O and homogenizing until a uniform suspension was obtained. Homogenized zymosan was pelleted at 250 g and resuspended in 4 ml of human serum for a final concentration of 5 mg/ml and incubated in a 37° C. water bath for 20 minutes to enable opsonization.
THP-1 cells were stimulated to produce TNFα by the addition of 1 mg/ml opsonized zymosan. […] Each drug concentration was tested in triplicate wells. Plates were incubated at 37° C. for 24 hours.
After a 24-hour stimulation, supernatants were collected to quantify TNFα production. TNFα concentrations in the supernatants were determined by ELISA using recombinant human TNFα to obtain a standard curve A 96-well MaxiSorb plate was coated with 100 μL of anti-human TNFα Capture Antibody diluted in Coating Buffer (0.1M sodium carbonate pH 9 5) overnight at 4° C. The dilution of Capture Antibody used was lot-specific and was determined empirically. Capture antibody was then aspirated and the plate washed 3 times with Wash Buffer (PBS, 0.05% TWEEN-20) Plates were blocked for 1 hour at room temperature with 200 μL/well of Assay Diluent (PBS, 10% FCS pH 7.0). After blocking, plates were washed 3 times with Wash Buffer. […] Sample supernatants and standards were assayed in triplicate and were incubated at room temperature for 2 hours after addition to the plate coated with Capture Antibody. The plates were washed 5 times and incubated with 100 μL of Working Detector (biotinylated anti-human TNFα detection antibody+avidin-HRP) for 1 hour at room temperature. Following this incubation, the plates were washed 7 times and 100 μL of Substrate Solution (tetramethylbenzidine, H2O2) was added to plates and incubated for 30 minutes at room temperature. […] Mean absorbance was determined from triplicate data readings and the mean background was subtracted. TNFα concentration values were obtained from the standard curve.

Each structure is given as a SMILES string. Like-named read-outs stand apart in the source and are kept apart here.

`Sc1ncc2[nH]cnc2n1` [2-mercaptopurine]: the Minimum inhibitory concentration entry in [1] was “N”.
For `O=c1[nH]cc(F)c(=O)[nH]1` [5-fluorouracil], the Minimum inhibitory concentration is reported as 10^−7 Molar in experiment [2]; 10^−4 Molar in [3]; 10^−7 Molar in [4]; 10^−6 Molar in experiment [1]; 10^−5 Molar in experiment [5]; 10^−6 Molar in experiment [6].
With `Sc1ncnc2nc[nH]c12` [6-mercaptopurine], the Minimum inhibitory concentration entry in [1] was “N”.
In the case of `CC[C@@]1(O)C(=O)OCc2c1cc1n(c2=O)Cc2cc3ccccc3nc2-1` [camptothecin], the Minimum inhibitory concentration in experiment [2] is reported as 10^−4 Molar; in experiment [3], “N”; in experiment [4], “N”; in experiment [1] it was “N”; in experiment [5], “N”; in experiment [6] it was “N”.
With `N.N.[Cl][Pt][Cl]` [cisplatin], the Minimum inhibitory concentration result is “N” in experiment [2]; “N” in experiment [3]; “N” in [4]; “N” in experiment [1]; 10^−4 Molar in experiment [5]; “N” in experiment [6].
As for `Nc1ccn([C@@H]2O[C@H](CO)[C@@H](O)[C@@H]2O)c(=O)n1` [cytarabine], the Minimum inhibitory concentration result in experiment [2], in experiment [3], in [4], in [1], in [5] and in experiment [6] was “N” each time. In addition, in experiment [7], the IC50 amounted to 0.085 µM.
With `COc1cccc2c1C(=O)c1c(O)c3c(c(O)c1C2=O)C[C@@](O)(C(C)=O)C[C@@H]3O[C@H]1C[C@H](N)[C@H](O)[C@H](C)O1` [daunorubicin], the IC50 in experiment [8] is 0.517 µM; in experiment [7] it was 0.05 µM; in [9], 0.421 µM; in experiment [10], 0.57 µM; in experiment [11], 0.195 µM.
On to `NC(=O)NO` [hydroxyurea], for which the Minimum inhibitory concentration result is listed as “N” in experiment [2]; 10^−4 Molar in experiment [3]; “N” in [4]; “N” in experiment [1]; 10^−4 Molar in [5]; “N” in experiment [6].
For `CN(Cc1cnc2nc(N)nc(N)c2n1)c1ccc(C(=O)N[C@@H](CCC(=O)O)C(=O)O)cc1` [methotrexate], the Minimum inhibitory concentration entry was “N” in experiment [2]; 10^−6 Molar in experiment [3]; 10^−5 Molar in experiment [4]; “N” in [1]; “N” in [5]; 10^−6 Molar in experiment [6].
`O=C1c2c(O)ccc(O)c2C(=O)c2c(NCCNCCO)ccc(NCCNCCO)c21` [mitoxantrone, 9,10-anthracenedione, 1,4-dihydroxy-5,8-bis((2-((2-hydroxyethyl)amino)ethyl)amino)-]: the IC50 came to 0.001 µM in experiment [7] and 0.062 µM in experiment [10] (Homo sapiens). In experiment [1], the Minimum inhibitory concentration was 10^−5 Molar.

The values above are taken from US20090226500A1, “SUTURES AND ANTI-SCARRING AGENTS” (Angiotech Pharmaceuticals, Inc, priority 2006, published 2009).
